Results: ChEMBL document CHEMBL1135371, “Synthesis and pharmacology of isoquinuclidine derivatives as 5-HT(3) ligands” (Bioorg Med Chem Lett, 2002)

How the values were obtained:
[1] = target: T1, 5-hydroxytryptamine receptor 4 (Cavia porcellus, UniProt O70528); test: Binding affinity towards 5-hydroxytryptamine 4 receptor in striatum membranes of guinea-pig brain was evaluated; format: cell membranes, Membrane
[2] = target: T2, D(2) dopamine receptor (Rattus norvegicus, UniProt P61169); test: Binding affinity towards Dopamine receptor D2 in rat was evaluated
T2 sequence (P61169 whole entry): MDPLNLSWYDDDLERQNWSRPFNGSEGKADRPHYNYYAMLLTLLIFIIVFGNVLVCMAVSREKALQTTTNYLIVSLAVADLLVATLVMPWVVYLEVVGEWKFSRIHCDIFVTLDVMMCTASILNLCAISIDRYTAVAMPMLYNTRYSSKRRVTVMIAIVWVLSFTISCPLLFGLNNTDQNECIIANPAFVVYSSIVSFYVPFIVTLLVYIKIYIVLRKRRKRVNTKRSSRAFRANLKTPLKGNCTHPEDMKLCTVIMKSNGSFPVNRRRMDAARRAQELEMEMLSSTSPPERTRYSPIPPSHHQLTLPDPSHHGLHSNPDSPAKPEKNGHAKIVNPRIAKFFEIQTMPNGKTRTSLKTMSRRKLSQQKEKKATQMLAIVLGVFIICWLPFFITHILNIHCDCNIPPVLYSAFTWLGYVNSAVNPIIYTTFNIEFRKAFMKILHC

[3] = target: T2, D(2) dopamine receptor; test: Binding affinity towards D2 receptor in rat was evaluated
[4] = target: T3, Serotonin 3 (5-HT3) receptor (Rattus norvegicus, UniProt P35563+Q9JJ16); test: Binding affinity towards 5-HT3 receptor in rat was evaluated
T3 sequence (P35563 whole entry): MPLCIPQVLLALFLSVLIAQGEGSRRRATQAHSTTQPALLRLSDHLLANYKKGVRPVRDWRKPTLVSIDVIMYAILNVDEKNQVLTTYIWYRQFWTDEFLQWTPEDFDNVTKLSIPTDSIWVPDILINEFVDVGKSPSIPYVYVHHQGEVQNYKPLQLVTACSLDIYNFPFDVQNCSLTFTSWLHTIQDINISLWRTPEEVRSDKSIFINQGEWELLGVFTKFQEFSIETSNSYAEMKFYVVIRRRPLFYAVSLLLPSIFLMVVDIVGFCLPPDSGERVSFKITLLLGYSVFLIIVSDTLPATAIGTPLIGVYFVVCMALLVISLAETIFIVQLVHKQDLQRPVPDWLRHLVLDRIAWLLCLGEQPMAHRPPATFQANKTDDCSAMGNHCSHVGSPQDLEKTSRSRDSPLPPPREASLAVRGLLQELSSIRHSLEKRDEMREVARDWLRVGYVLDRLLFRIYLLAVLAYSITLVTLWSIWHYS
T3 sequence (Q9JJ16 whole entry): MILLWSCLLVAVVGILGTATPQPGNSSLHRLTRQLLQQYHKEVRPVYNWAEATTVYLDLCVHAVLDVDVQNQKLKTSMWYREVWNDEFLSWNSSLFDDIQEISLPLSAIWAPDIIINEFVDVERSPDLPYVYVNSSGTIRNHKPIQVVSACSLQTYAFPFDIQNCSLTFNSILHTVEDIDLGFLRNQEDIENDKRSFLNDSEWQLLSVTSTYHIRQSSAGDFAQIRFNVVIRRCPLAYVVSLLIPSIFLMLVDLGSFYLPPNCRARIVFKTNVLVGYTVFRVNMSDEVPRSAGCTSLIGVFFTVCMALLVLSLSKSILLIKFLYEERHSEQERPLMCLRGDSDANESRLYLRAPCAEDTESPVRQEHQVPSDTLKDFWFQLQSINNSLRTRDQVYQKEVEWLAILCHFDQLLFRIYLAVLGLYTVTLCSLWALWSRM

[5] = target: T1, 5-hydroxytryptamine receptor 4; test: Binding affinity towards 5-HT4 receptor in striatum membranes of guinea-pig brain was evaluated; format: cell membranes, Membrane
[6] = target: T3, Serotonin 3 (5-HT3) receptor; test: Binding affinity towards rat 5-hydroxytryptamine 3 receptor was evaluated; format: protein-complex assay

T1 sequence (O70528 whole entry): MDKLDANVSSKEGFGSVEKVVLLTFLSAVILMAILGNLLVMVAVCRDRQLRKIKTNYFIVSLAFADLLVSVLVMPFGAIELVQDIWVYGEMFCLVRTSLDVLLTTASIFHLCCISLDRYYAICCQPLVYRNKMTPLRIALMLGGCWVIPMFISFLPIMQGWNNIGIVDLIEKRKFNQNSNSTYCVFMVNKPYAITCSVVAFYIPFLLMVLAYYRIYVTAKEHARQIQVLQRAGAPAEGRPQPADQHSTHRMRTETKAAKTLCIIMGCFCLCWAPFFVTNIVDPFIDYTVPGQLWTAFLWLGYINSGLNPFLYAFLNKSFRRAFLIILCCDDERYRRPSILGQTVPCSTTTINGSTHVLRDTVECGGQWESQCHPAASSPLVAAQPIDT

COc1cc(N)c(Cl)cc1C(=O)NC1CC2CCC1N(C)C2 (centres undefined)
IC50 [1]: 1000 nM | IC50 [2]: > 1000 nM | IC50 [3]: 1000 nM | IC50 [4]: > 1000 nM | Ki [4]: 327 nM | IC50 [5]: > 1000 nM

COc1cc(N)c(Cl)cc1C(=O)OC1CC2CCC1CN2C (stereo in doubt; anti)
Ki [1]: 82.6 nM | IC50 [2]: > 1000 nM | Ki [4]: 5.19 nM

COc1cc(N)c(Cl)cc1C(=O)OC1CC2CCC1N(C)C2 (stereo in doubt; anti)
IC50 [1]: > 1000 nM | IC50 [2]: > 1000 nM | Ki [4]: 13.8 nM

COc1cc(N)c(Cl)cc1C(=O)NC1CC2CCC1CN2C (stereo in doubt; anti)
IC50 [1]: > 1000 nM | Ki [2]: 130 nM | IC50 [4]: 17300 nM

COc1cc(N)c(Cl)cc1C(=O)OC1CC2CCC1CN2C (stereo in doubt; syn)
IC50 [3]: > 1000 nM | Ki [4]: 11.2 nM | Ki [5]: 240 nM

COc1cc(N)c(Cl)cc1C(=O)OC1CC2CCC1N(C)C2 (stereo in doubt; syn)
IC50 [3]: > 1000 nM | Ki [4]: 192 nM | IC50 [5]: > 1000 nM

COc1cc(N)c(Cl)cc1C(=O)NC1CC2CCC1CN2C (stereo in doubt; syn)
Ki [3]: 842 nM | IC50 [4]: 1000 nM | IC50 [5]: 1000 nM

CN1C2CCCC1CC(NC(=O)c1nn(C)c3ccccc13)C2 (centres undefined) [GRANISETRON]
IC50 [3]: > 1000 nM | IC50 [5]: > 1000 nM

CN1[C@@H]2CC[C@H]1C[C@@H](OC(=O)c1c[nH]c3ccccc13)C2 [TROPISETRON]
Ki [1]: 125 nM | IC50 [2]: > 1000 nM | Ki [6]: 1.55 nM
